Results as given in patent publication US12257287B2, “Glucagon-derived peptide and use thereof” (Tianjin Institute of Pharmaceutical Research Co., Ltd., priority 2018, dated 2025).
In brackets after ≈: the same amount, converted by molar mass. Marks after values point to notes of the source that are not given here. Numbered stars: 1 amine (or outer) side, 2 acyl side, 3 side chain; on linkers, the order of the positions; unused ones are H or OH. Square brackets hold non-standard residues; d marks the D form. Side chains are listed from the residue outwards. Peptide text beside a SMILES is read from it. * marks the point of attachment. C20 diacid = O=C(O)CCCCCCCCCCCCCCCCCCC(=O)*; C18 diacid = O=C(O)CCCCCCCCCCCCCCCCC(=O)*; γGlu = O=C(O)[C@H](CCC(=O)[*:2])N[*:1]; AEEA = NCCOCCOCC(=O)O; Aib = CC(C)(N)C(=O)O

How the values were obtained:
[1] = Accelerated chemical stability in injection solvent system (HPLC-UV); assay type: physicochemical; conditions: 14 days, phosphate buffer pH 7.3 with Tween 80 and phenol, main peak area vs day 0
Experimental: The chemical stability of the compounds of the present invention in injection solution systems was evaluated by an accelerated stability test. Methods: an appropriate amount of compound of Example 1 was weighed, and dissolved in 10 mM pH8.5 sodium hydrogen phosphate buffer. The final pH value of the solution was adjusted to 7.3 with 0.1 N hydrochloric acid, and proper amounts of Tween 80 and phenol were added. The mixture was placed at 10° C. and 37° C. for 14 days, and detected by HPLC-UV. The main peak area was obtained by peak area normalization method, and the changes compared with day 0 were investigated. The HPLC detection method was the same as that in Example 6, and the mobile phase gradient was appropriately adjusted according to the situation of chromatographic peak separation.

[2] = target: T1, GC receptor (Homo sapiens, UniProt P47871); assay: GC receptor mediated cAMP production in vitro (HEK293 cells transfected with GC receptor); assay type: cell-based; conditions: 20 min at 37° C., read-out: GCGR (nM EC50)
T1 construct: expressed in transfected cells; host or cells: HEK293 cells
T1 sequence (P47871 26-477): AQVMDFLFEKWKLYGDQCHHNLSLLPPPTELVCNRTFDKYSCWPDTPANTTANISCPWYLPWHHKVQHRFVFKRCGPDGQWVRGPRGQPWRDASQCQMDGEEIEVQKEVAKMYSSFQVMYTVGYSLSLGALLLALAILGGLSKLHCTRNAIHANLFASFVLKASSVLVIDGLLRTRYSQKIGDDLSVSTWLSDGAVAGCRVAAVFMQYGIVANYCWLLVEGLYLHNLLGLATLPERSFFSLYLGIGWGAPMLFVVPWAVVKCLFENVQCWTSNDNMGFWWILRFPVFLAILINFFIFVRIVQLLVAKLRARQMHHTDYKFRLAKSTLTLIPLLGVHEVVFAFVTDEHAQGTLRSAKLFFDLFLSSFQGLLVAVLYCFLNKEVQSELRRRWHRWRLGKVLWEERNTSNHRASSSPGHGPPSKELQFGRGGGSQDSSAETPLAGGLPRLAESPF
Text: The medium was removed, the cells were lysed, and cAMP values were detected referring to the detection method described for the assay kit.

[3] = Short-term administration: food intake and body weight in DIO mice; assay type: in vivo; conditions: 30 nmol/kg once every 24 h, twice, − decrease; for Rate of change in food intake (%): at 48 hours vs day before administration; for Body weight change: at 48 hours
Experimental: Method: diet-induced obese mice (DIO) with an average body weight of 52.5 g were divided into model control and test groups, 5 mice in each group. The test samples were dissolved in 10 mM PBS of pH7.4, injected once every 24 h at a dose of 30 nmol/kg, and administered twice. The model group was injected with solvent. Changes in food intake and body weight at 48 hours were measured, and the change rates were calculated compared to the day before administration.

[4] = physchem; assay type: physicochemical
Experimental: 2 mg of the compound was weighed, dissolved in 1 ml of phosphate buffer solutions with different concentrations (10, 20 mM) and different pH values (7.5, 8.0), and centrifuged, and supernatant was taken. The peak area was measured by HPLC (chromatographic column: Aeris widepore XB-C18 3.6 mm, 4.6×150 mm; mobile phase: A: 0.05% TFA, B: 95% acetonitrile; detection wavelength: 214 nm) and compared with a corresponding sample standard solution, and the relative concentration of the test sample solution is calculated.

[5] = Glucose tolerance test in glucose-loaded DIO mice; assay type: in vivo; set-up: AUC reduction rate (%), Table 6: concentration or dose not given beside the values; conditions: for AUC of blood glucose, Table 6: Example 4, DIO mice under glucose load, methods as in Example 3; for AUC reduction rate (%), Table 6: Example 4, compared with model control group, DIO mice under glucose load
Experimental: DIO mice fasted for 16 h, and 1 h after administration by subcutaneous injection, glucose solution (1 g/kg) was given intraperitoneally for glucose tolerance test. Blood glucose values were measured at 0.5, 1 and 1.5 h after glucose administration. The area under the blood glucose concentration curve (AUC) was calculated and compared with that of the model control group, and the blood glucose inhibition rate (%) was calculated.
(§1) Methods are the same as that in Example 3, the test results of effects on body weight are shown in Table 5, and the effects on blood glucose are shown in Table 6. In the table, 5 #-9 # are compound 27, compound 35, compound 54, compound 57, and compound 66, respectively.

[6] = Effect on body weight of DIO mice after 14 days' administration; assay type: in vivo, C57BL/6J mice; conditions: positive values indicate a decrease; for body weight change, Table 5: Example 4, DIO mice, 14 days' administration, methods as in Example 3
Text: C57BL/6J mice (n=35), model group (n=30) were fed with H10060 high-fat diet to induce obesity (DIO), blank control group (n=5) were fed with standard diet, both for 34 weeks. One day before the first administration, the model group was randomly divided into groups according to their body weight (average body weight range 45.0-52.0 g), with 5 mice in each group, which respectively were model control group, positive control group (semaglutide), and test sample group (1 #-4 # are compound 1, compound 4, compound 6 and compound 22, respectively). The blank control group and model control group were given saline subcutaneously every day, while the positive control group and test sample group were administrated by subcutaneous injection every day for 14 days. The body weight of the animals was weighed and recorded every day, and the change rate of body weight (%) was calculated by comparing the body weight at the last administration day with the initial body weight. (initial body weight−last body weight)/initial body weight=body weight change rate (%). Calculation formula: […]
Calculated positive values indicate a decrease and negative values indicate an increase.
as §1

[7] = pH 7.5, Solubility, pH 7.5, 10 mM phosphate buffer
[8] = pH 7.5, Solubility, pH 7.5, 20 mM phosphate buffer
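Throughout, for Solubility: compound added at 2 mg per mL of phosphate buffer, with the dissolved amount determined in the supernatant.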

Change in purity % (10° C.) [1]	Change in purity % (37° C.) [1]	EC50 [2]	solubility [4, 7]	solubility [4, 8]	solubility ([4]; pH 8, Solubility, pH 8.0, 10 mM phosphate buffer)	solubility ([4]; pH 8, Solubility, pH 8.0, 20 mM phosphate buffer)	Compound	Rate of change in food intake (%) [3]	Body weight change [3]	AUC of blood glucose, Table 4 ([5]; DIO mice fasted 16 h, glucose 1 g/kg i.p. 1 h after s.c. administration, 0.5, 1, 1.5 h)	AUC of blood glucose, Table 6 [5]	AUC reduction rate (%), Table 6 [5]	AUC reduction rate (%), Table 4 ([5]; blood glucose inhibition rate compared with model control group, DIO mice, glucose 1 g/kg i.p.)	body weight change rate, Table 3 ([6]; DIO mice, subcutaneous injection every day for 14 days, (initial−last)/initial)	body weight change, Table 5 [6]
−2.0%	−5.7%	0.018 nM	> 2000 µg/mL	> 2000 µg/mL			CC(C)C[C@H](NC(=O)[C@H](Cc1c[nH]c2ccccc12)NC(=O)[C@H](C)NC(=O)[C@@H](NC(=O)[C@H](Cc1ccccc1)NC(=O)[C@H](CCC(=O)O)NC(=O)[C@H](CCCCN)NC(=O)[C@H](C)NC(=O)[C@H](C)NC(=O)[C@H](CCCNC(=N)N)NC(=O)[C@H](CCC(=O)O)NC(=O)[C@H](CCC(=O)O)NC(=O)[C@H](CC(C)C)NC(=O)[C@H](Cc1ccc(O)cc1)NC(=O)[C@H](CCCCN)NC(=O)[C@H](CO)NC(=O)[C@H](CCCCNC(=O)COCCOCCNC(=O)COCCOCCNC(=O)CC[C@H](NC(=O)CCCCCCCCCCCCCCCCC(=O)O)C(=O)O)NC(=O)[C@H](CC(=O)O)NC(=O)[C@H](CO)NC(=O)[C@@H](NC(=O)[C@H](Cc1ccccc1)NC(=O)[C@@H](NC(=O)CNC(=O)[C@H](CCC(N)=O)NC(=O)C(C)(C)NC(=O)[C@@H](N)Cc1c[nH]cn1)[C@@H](C)O)[C@@H](C)O)C(C)C)C(=O)N[C@@H](CCC(=O)O)C(=O)N[C@@H](C)C(=O)NCC(=O)NCC(=O)N1CCC[C@H]1C(=O)N[C@@H](CO)C(=O)N[C@@H](CO)C(=O)NCC(N)=O [Compound 22] (H-H[Aib]QGTFTSDK([AEEA-AEEA-γGlu-C18 diacid])SKYLEERAAKEFVAWLEAGGPSSG-NH2; N-terminus assumed)	−62%	-2.6 g						
			1500 µg/mL (≈ 347 µM)	1070 µg/mL (≈ 247 µM)	> 2000 µg/mL	1760 µg/mL (≈ 407 µM)	CCCCCCCCCCCCCCCC(=O)N[C@@H](CCC(=O)N[C@@H](CCC(=O)NCCCC[C@H](NC(=O)[C@H](CCC(=O)O)NC(=O)[C@H](CCC(=O)O)NC(=O)[C@H](CC(C)C)NC(=O)[C@H](Cc1ccc(O)cc1)NC(=O)[C@H](CCCCN)NC(=O)[C@H](CO)NC(=O)[C@H](Cc1ccc(O)cc1)NC(=O)[C@H](CC(=O)O)NC(=O)[C@H](CO)NC(=O)[C@@H](NC(=O)[C@H](Cc1ccccc1)NC(=O)[C@@H](NC(=O)CNC(=O)[C@H](CCC(N)=O)NC(=O)C(C)(C)NC(=O)[C@@H](N)Cc1c[nH]cn1)[C@@H](C)O)[C@@H](C)O)C(=O)N[C@@H](CCCNC(=N)N)C(=O)N[C@@H](C)C(=O)N[C@@H](CCCNC(=N)N)C(=O)N[C@@H](CCC(=O)O)C(=O)N[C@@H](Cc1ccccc1)C(=O)N[C@H](C(=O)N[C@@H](C)C(=O)N[C@@H](Cc1c[nH]c2ccccc12)C(=O)N[C@@H](CC(C)C)C(=O)N[C@@H](CC(C)C)C(=O)N[C@@H](CCC(=O)O)C(=O)NCC(=O)NCC(=O)N1CCC[C@H]1C(=O)N[C@@H](CO)C(=O)N[C@@H](CO)C(=O)NCC(N)=O)C(C)C)C(=O)O)C(=O)O [Compound 9] (HELM PEPTIDE1{H.[Aib].Q.G.T.F.T.S.D.Y.S.K.Y.L.E.E.K.R.A.R.E.F.V.A.W.L.L.E.G.G.P.S.S.G.[am]}|PEPTIDE2{[CCCCCCCCCCCCCCCC(=O)[*:2]].[gGlu].[gGlu]}$PEPTIDE1,PEPTIDE2,17:R3-3:R2$$$V2.0)				8.71 ± 2.10 mmol·h/L	56.2** %			19.9

More lines, now with the values behind:

Compound	Change in purity % (10° C.) [1]	Change in purity % (37° C.) [1]	EC50 [2]	solubility [4, 7]	solubility [4, 8]	solubility ([4]; pH 8, Solubility, pH 8.0, 10 mM phosphate buffer)	solubility ([4]; pH 8, Solubility, pH 8.0, 20 mM phosphate buffer)	Rate of change in food intake (%) [3]	Body weight change [3]	AUC of blood glucose, Table 4 ([5]; DIO mice fasted 16 h, glucose 1 g/kg i.p. 1 h after s.c. administration, 0.5, 1, 1.5 h)	AUC of blood glucose, Table 6 [5]	AUC reduction rate (%), Table 6 [5]	AUC reduction rate (%), Table 4 ([5]; blood glucose inhibition rate compared with model control group, DIO mice, glucose 1 g/kg i.p.)	body weight change rate, Table 3 ([6]; DIO mice, subcutaneous injection every day for 14 days, (initial−last)/initial)	body weight change, Table 5 [6]
CC(C)C[C@H](NC(=O)[C@H](Cc1c[nH]c2ccccc12)NC(=O)[C@H](C)NC(=O)[C@@H](NC(=O)[C@H](Cc1ccccc1)NC(=O)[C@H](CCC(=O)O)NC(=O)[C@H](CCCCN)NC(=O)[C@H](C)NC(=O)[C@H](C)NC(=O)[C@H](CCCNC(=N)N)NC(=O)[C@H](CCC(=O)O)NC(=O)[C@H](CC(=O)O)NC(=O)[C@H](CC(C)C)NC(=O)[C@H](Cc1ccc(O)cc1)NC(=O)[C@H](CCCCN)NC(=O)[C@H](CO)NC(=O)[C@H](CCCCNC(=O)COCCOCCNC(=O)COCCOCCNC(=O)CC[C@H](NC(=O)CCCCCCCCCCCCCCCCCCC(=O)O)C(=O)O)NC(=O)[C@H](CC(=O)O)NC(=O)[C@H](CO)NC(=O)[C@@H](NC(=O)[C@H](Cc1ccccc1)NC(=O)[C@@H](NC(=O)CNC(=O)[C@H](CCC(N)=O)NC(=O)C(C)(C)NC(=O)[C@@H](N)Cc1c[nH]cn1)[C@@H](C)O)[C@@H](C)O)C(C)C)C(=O)N[C@@H](CCC(=O)O)C(=O)N[C@@H](C)C(=O)NCC(=O)NCC(=O)N1CCC[C@H]1C(=O)N[C@@H](CO)C(=O)N[C@@H](CO)C(=O)NCC(N)=O [Compound 13] (H-H[Aib]QGTFTSDK([AEEA-AEEA-γGlu-C20 diacid])SKYLDERAAKEFVAWLEAGGPSSG-NH2; N-terminus assumed)	−2.8%	−6.9%	0.033 nM	> 2000 µg/mL	> 2000 µg/mL			−67%	-2.3 g						
semaglutide [reference compound]										8.97 ± 1.27 mmol·h/L	8.33 ± 1.09 mmol·h/L	58.1** %	57.7** %	13.20%	16.29
HAibQGTFTSDYSKYLEEK*RAREFVEWLLEAGGPSSG-Amid (HXQGTFTSDYSKYLEEKRAREFVEWLLEAGGPSSG; HELM PEPTIDE1{H.[Aib].Q.G.T.F.T.S.D.Y.S.K.Y.L.E.E.K.R.A.R.E.F.V.E.W.L.L.E.A.G.G.P.S.S.G.[am]}|PEPTIDE2{[CCCCCCCCCCCCCCCC(=O)[*:2]].[gGlu].[gGlu]}$PEPTIDE1,PEPTIDE2,17:R3-3:R2$$$V2.0; N-terminus assumed; SMILES CCCCCCCCCCCCCCCC(=O)N[C@@H](CCC(=O)N[C@@H](CCC(=O)NCCCC[C@H](NC(=O)[C@H](CCC(=O)O)NC(=O)[C@H](CCC(=O)O)NC(=O)[C@H](CC(C)C)NC(=O)[C@H](Cc1ccc(O)cc1)NC(=O)[C@H](CCCCN)NC(=O)[C@H](CO)NC(=O)[C@H](Cc1ccc(O)cc1)NC(=O)[C@H](CC(=O)O)NC(=O)[C@H](CO)NC(=O)[C@@H](NC(=O)[C@H](Cc1ccccc1)NC(=O)[C@@H](NC(=O)CNC(=O)[C@H](CCC(N)=O)NC(=O)C(C)(C)NC(=O)[C@@H](N)Cc1c[nH]cn1)[C@@H](C)O)[C@@H](C)O)C(=O)N[C@@H](CCCNC(=N)N)C(=O)N[C@@H](C)C(=O)N[C@@H](CCCNC(=N)N)C(=O)N[C@@H](CCC(=O)O)C(=O)N[C@@H](Cc1ccccc1)C(=O)N[C@H](C(=O)N[C@@H](CCC(=O)O)C(=O)N[C@@H](Cc1c[nH]c2ccccc12)C(=O)N[C@@H](CC(C)C)C(=O)N[C@@H](CC(C)C)C(=O)N[C@@H](CCC(=O)O)C(=O)N[C@@H](C)C(=O)NCC(=O)NCC(=O)N1CCC[C@H]1C(=O)N[C@@H](CO)C(=O)N[C@@H](CO)C(=O)NCC(N)=O)C(C)C)C(=O)O)C(=O)O) [Compound 8, 32; * = -γE-γE-OC16H31]											8.11 ± 1.92 mmol·h/L	59.2** %			24.1
